*1 amine or outer side, *2 acyl side, *3 side chain or, on linkers, in order; H or OH if unused. Where a SMILES comes first, the peptide text is derived from it. The star is where a group is joined. ξ: configuration not given here. X6 = Nc1ccn(C2OC(COC(=O)CCCCCN3C(=O)CC(*)C3=O)C(O)C2(F)F)c(=O)n1; C18 diacid = O=C(O)CCCCCCCCCCCCCCCCC(=O)*; ξγGlu = O=C(O)C(CCC(=O)[*:2])N[*:1]; AEEA = NCCOCCOCC(=O)O
Molecular target: Inactive tyrosine-protein kinase transmembrane receptor ROR1 (Homo sapiens, UniProt Q01973)
Experiment: Binding affinity to N-terminal His/GST-tagged recombinant human ROR1 (453 to 783 residues) extracted from baculovirus infected insect cells assessed as dissociation constant by SPR analysis

Inactive tyrosine-protein kinase transmembrane receptor ROR1, sequence (Q01973 whole entry, the tested form may be a part): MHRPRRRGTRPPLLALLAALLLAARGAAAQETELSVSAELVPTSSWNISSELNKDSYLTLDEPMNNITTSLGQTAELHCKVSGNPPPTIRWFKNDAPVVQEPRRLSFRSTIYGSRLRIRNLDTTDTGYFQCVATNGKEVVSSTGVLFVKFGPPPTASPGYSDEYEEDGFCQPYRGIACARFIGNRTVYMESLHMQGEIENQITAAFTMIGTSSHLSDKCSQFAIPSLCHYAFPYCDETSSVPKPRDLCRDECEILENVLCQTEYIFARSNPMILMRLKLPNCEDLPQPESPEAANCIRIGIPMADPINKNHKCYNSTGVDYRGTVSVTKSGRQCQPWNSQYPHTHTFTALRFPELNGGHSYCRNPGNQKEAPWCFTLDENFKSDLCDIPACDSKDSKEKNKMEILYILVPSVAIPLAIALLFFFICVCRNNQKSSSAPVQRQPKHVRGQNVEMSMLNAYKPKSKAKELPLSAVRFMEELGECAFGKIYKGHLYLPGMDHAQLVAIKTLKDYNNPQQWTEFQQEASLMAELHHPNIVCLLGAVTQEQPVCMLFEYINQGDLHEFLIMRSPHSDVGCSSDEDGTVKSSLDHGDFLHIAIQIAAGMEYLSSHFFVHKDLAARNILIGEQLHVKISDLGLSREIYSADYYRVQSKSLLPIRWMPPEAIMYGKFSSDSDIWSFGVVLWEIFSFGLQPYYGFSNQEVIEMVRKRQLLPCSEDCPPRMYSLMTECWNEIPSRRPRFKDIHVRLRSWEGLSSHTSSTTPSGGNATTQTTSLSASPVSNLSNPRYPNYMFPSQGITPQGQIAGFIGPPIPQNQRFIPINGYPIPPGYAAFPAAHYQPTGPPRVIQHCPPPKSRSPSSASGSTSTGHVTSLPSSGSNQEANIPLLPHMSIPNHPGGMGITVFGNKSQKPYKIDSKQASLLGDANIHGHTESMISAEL

Kd: 1.2 nM
Structure (SMILES): CC[C@H](C)[C@H](NC(=O)[C@H](CC(=O)O)NC(=O)[C@H](CO)NC(=O)CNC(=O)[C@H](CSC1CC(=O)N(CCCCCC(=O)OCC2OC(n3ccc(N)nc3=O)C(F)(F)C2O)C1=O)NC(=O)CNC(=O)[C@H](CCCCN)NC(=O)COCCOCCNC(=O)COCCOCCNC(=O)CCC(NC(=O)CCCCCCCCCCCCCCCCC(=O)O)C(=O)O)C(=O)N[C@@H](CC(N)=O)C(=O)N[C@@H](CC(=O)O)C(=O)N[C@@H](CCCNC(=N)N)C(=O)N[C@@H](CCC(N)=O)C(=O)N[C@H](C(=O)N1CCC[C@H]1C(=O)NCC(=O)N[C@@H](Cc1ccc(O)cc1)C(=O)N[C@@H](CO)C(=O)N[C@H](C(=O)N[C@@H](Cc1ccc(O)cc1)C(=O)N[C@@H](Cc1c[nH]c2ccccc12)C(=O)NCC(=O)N[C@@H](CC(=O)O)C(=O)N[C@@H](Cc1ccccc1)C(N)=O)[C@@H](C)O)[C@@H](C)CC (stereo partly specified) ({C18 diacid-ξγGlu-AEEA-AEEA}-KGC(X6)GSDINDRQIPGYSTYWGDF-NH2)

From BindingDB's records for PubMed 38943600 (China Pharmaceutical University)
